Structures can show the parent of a compound that is named as a salt.
Legend:
[1] = test system: NORMAL INTRAOCULAR PRESSURE IN UNANESTHETIZED RABBITS; assay: Topical administration, effect on normal intraocular pressure in unanesthetized rabbits; format: in vivo; details: 12.1 % by wt., 50μl in both eyes, in 0.5% hydroxyethylcellulose
[2] = test system: INTRAOCULAR PRESSURE (IOP) IN RABBITS WITH ALPHA CHYMOTRYPSIN-INDUCED OCULAR HYPERTENSION; assay: Topical administration, effect on IOP in rabbits with alpha chymotrypsin-induced ocular hypertension (tonometry); format: in vivo; details: for mean ΔP (mean of ΔP versus IOP at t0): 8 animals; for mean ΔP (mean of ΔP versus IOP at t0) / Intraocular pressure, mean ± stand deviation: 50μl in 0.5% hydroxyethyl cellulose; for Change in IOP (mm Hg) After Drug Administration: 12.1 % by wt., 50µl of 0.5% hydroxyethylcellulose; for Change in IOP (mm Hg) After Drug Administration / IOP (mm Hg) t=0 min.: mean ± standard deviation, Table III; for IOP (mm Hg) t=0 min.: immediately prior the drug administration (served as control), 9 eyes; for Intraocular pressure, mean ± stand deviation: mean of 8 animals
[3] = 0 min after instillation (baseline), 14 eyes

## CC(=O)N=c1sc(S(N)(=O)=O)nn1C.[Na] [Methazolamide Sodium salt, N-[5-(aminosulfonyl)-3-methyl-1,3,4-thiadiazol-2(3H)-ylidene]acetamide Sodium Salt]
[1]; [3]
  Mean Intraocular Pressure ± SD: 20±1.9 mm Hg
[1]; 30 min after instillation
  Mean Intraocular Pressure ± SD: 20±3.0 mm Hg
[1]; 60 min after instillation
  Mean Intraocular Pressure ± SD: 20±2.7 mm Hg
[1]; 120 min after instillation
  Mean Intraocular Pressure ± SD: 19±3.3 mm Hg
[1]; 180 min after instillation
  Mean Intraocular Pressure ± SD: 18±2.7 mm Hg
[1]; 240 min after instillation
  Mean Intraocular Pressure ± SD: 20±3.4 mm Hg
[1]; 300 min after instillation
  Mean Intraocular Pressure ± SD: 20±2.8 mm Hg
[2]; 30 min.
  mean ΔP (mean of ΔP versus IOP at t0): -3.1±4.58 mm Hg
  Intraocular pressure, mean ± stand deviation: 36.0±8.09 mm Hg
[2]; 30 min
  Change in IOP (mm Hg) After Drug Administration: -3±4.6 mm Hg
[2]; 60 min.
  mean ΔP (mean of ΔP versus IOP at t0): -5.1±4.68 mm Hg
  Intraocular pressure, mean ± stand deviation: 34.0±7.37 mm Hg
[2]; 60 min
  Change in IOP (mm Hg) After Drug Administration: -5±4.7 mm Hg
[2]; 120 min.
  mean ΔP (mean of ΔP versus IOP at t0): -5.6±6.02 mm Hg
  Intraocular pressure, mean ± stand deviation: 33.5±8.91 mm Hg
[2]; 120 min
  Change in IOP (mm Hg) After Drug Administration: -6±6.0 mm Hg
[2]; 180 min.
  mean ΔP (mean of ΔP versus IOP at t0): -6.8±3.70 mm Hg
  Intraocular pressure, mean ± stand deviation: 32.4±6.05 mm Hg
[2]; 180 min
  Change in IOP (mm Hg) After Drug Administration: -7±3.7 mm Hg
[2]; 240 min.
  mean ΔP (mean of ΔP versus IOP at t0): -5.4±5.42 mm Hg
  Intraocular pressure, mean ± stand deviation: 33.8±7.91 mm Hg
[2]; 240 min
  Change in IOP (mm Hg) After Drug Administration: -5±5.4 mm Hg
[2]; 300 min.
  mean ΔP (mean of ΔP versus IOP at t0): -6.9±6.27 mm Hg
  Intraocular pressure, mean ± stand deviation: 32.3±7.67 mm Hg
[2]; 300 min
  Change in IOP (mm Hg) After Drug Administration: -7±6.3 mm Hg
[2]
  IOP (mm Hg) t=0 min.: 39±7.7 mm Hg
[2]; 0 min. (baseline)
  Intraocular pressure, mean ± stand deviation: 39.1±7.72 mm Hg

## NS(=O)(=O)c1cc(Cl)c(Cl)c(S(N)(=O)=O)c1 [Dichlorphenamide Dipotassium salt, 4,5-Dichloro-m-benzenedisulfon-amide dipotassium salt . hemihydrate]
[1]; [3]
  Mean Intraocular Pressure ± SD: 20±1.8 mm Hg
[1]; 30 min after instillation
  Mean Intraocular Pressure ± SD: 18±2.4 mm Hg
[1]; 60 min after instillation
  Mean Intraocular Pressure ± SD: 18±2.4 mm Hg
[1]; 120 min after instillation
  Mean Intraocular Pressure ± SD: 17±2.1 mm Hg
[1]; 180 min after instillation
  Mean Intraocular Pressure ± SD: 15±2.4 mm Hg
[1]; 240 min after instillation
  Mean Intraocular Pressure ± SD: 17±1.8 mm Hg
[1]; 300 min after instillation
  Mean Intraocular Pressure ± SD: 20±2.6 mm Hg
[2]; 30 min
  Change in IOP (mm Hg) After Drug Administration: -1±5.3 mm Hg
[2]; 60 min
  Change in IOP (mm Hg) After Drug Administration: -4±3.8 mm Hg
[2]; 120 min
  Change in IOP (mm Hg) After Drug Administration: -7±6.2 mm Hg
[2]; 180 min
  Change in IOP (mm Hg) After Drug Administration: -6±6.8 mm Hg
[2]; 240 min
  Change in IOP (mm Hg) After Drug Administration: -4±6.2 mm Hg
[2]; 300 min
  Change in IOP (mm Hg) After Drug Administration: -3±6.7 mm Hg
[2]
  IOP (mm Hg) t=0 min.: 38±5.9 mm Hg

## CC(=O)Nc1nnc(S(N)(=O)=O)s1.[K].[K] [Acetazolamide Dipotassium salt, N-[5-(aminosulfonyl)-1,3,4-thiadiazol-2-yl]acetamide dipotassium salt]
[1]; [3]
  Mean Intraocular Pressure ± SD: 19±1.3 mm Hg
[1]; 30 min after instillation
  Mean Intraocular Pressure ± SD: 19±1.3 mm Hg
[1]; 60 min after instillation
  Mean Intraocular Pressure ± SD: 20±1.4 mm Hg
[1]; 120 min after instillation
  Mean Intraocular Pressure ± SD: 19±1.9 mm Hg
[1]; 180 min after instillation
  Mean Intraocular Pressure ± SD: 19±1.9 mm Hg
[1]; 240 min after instillation
  Mean Intraocular Pressure ± SD: 20±1.8 mm Hg
[1]; 300 min after instillation
  Mean Intraocular Pressure ± SD: 21±1.7 mm Hg
[2]; 30 min
  Change in IOP (mm Hg) After Drug Administration: -1±3.1 mm Hg
[2]; 60 min
  Change in IOP (mm Hg) After Drug Administration: -3±4.8 mm Hg
[2]; 120 min
  Change in IOP (mm Hg) After Drug Administration: -5±4.6 mm Hg
[2]; 180 min
  Change in IOP (mm Hg) After Drug Administration: -6±5.3 mm Hg
[2]; 240 min
  Change in IOP (mm Hg) After Drug Administration: -6±5.3 mm Hg
[2]; 300 min
  Change in IOP (mm Hg) After Drug Administration: -3±6.5 mm Hg
[2]
  IOP (mm Hg) t=0 min.: 37±6.4 mm Hg

Source: patent EP0033042A1, “Ophthalmic inserts for lowering intraocular pressure comprising carbonic anhydrase inhibitors” (Merck & Co., Inc., priority 1980, dated 1981)
